# Laboratory results as given in US20070021501A1, “Methods of treating epileptogenesis” (priority 2005, published 2007).
# “And” between values parts separate entries of the source, which are not always exact repeats. Equal values may be shown once.
# What was measured:
# [1] = test system: lithium-pilocarpine model of temporal lobe epilepsy in the rat; assay: Quantification of cell densities (neuronal counting) 14 days after Li-pilo SE (Example 2); conditions: for neurons surviving: all parts of the entorhinal cortex (range); for number of neuronal cell bodies: DZP 2.5 mg/kg i.m., 14 days after li-pilo SE
# Description: All rats received lithium chloride (3 meq/kg, i.p., Sigma, St Louis, Mo., U.S.A.) and about 20 h later, all animals received also methylscopolamine bromide (1 mg/kg, s.c., Sigma) that was administered to limit the peripheral effects of the convulsant. […] The effects of increasing doses of TC were studied in 5 groups of rats. […] The control group received vehicle instead of pilocarpine and TC.
# For neuronal counting, animals were deeply anesthetized with 1.8 g/kg pentobarbital (Dolethal®, Vétoquinol, Lure, France). Brains were then removed and frozen. Serial 20 μm slices were cut in a cryostat, air-dried during several days before thionine staining. […] The grid of counting was placed on a well defined area of the cerebral structure of interest and counting was carried out with a microscopic enlargement of 200- or 400-fold defined for each single cerebral structure. Cell counts were performed twice on each side of three adjacent sections for each region by a single observer unaware of the animal's treatment. The number of cells obtained in the 12 counted fields in each cerebral structure was averaged. This procedure was used to minimize the potential errors that could result from double counting leading to overestimation of cell numbers. […] Counts involved only neurons with cell bodies larger than 10 μm. Cells with small cell bodies were considered as glial cells and were not counted.
# For neuronal damage and epileptogenesis, statistical analysis between groups was performed by means of a one-way analysis of variance followed by a post-hoc Dunnett or Fisher test using the Statistica software.
# [2] = test system: lithium-pilocarpine model of temporal lobe epilepsy in the rat; assay: Latency to and frequency of spontaneous recurrent seizures (SRS), lithium-pilocarpine model (Example 1); format: in vivo
# Description: (§1) The bilateral EEG cortical activity was recorded during the whole duration of SE and behavioral changes were noted.
# The effects of increasing doses of the test compound were studied on 3 groups of rats. The animals of the first group received 10 mg/kg of the test compound, i.p., 1 h after the onset of SE (pilo-TC10) while the animals of groups 2 and 3 received 30 and 60 mg/kg of the test compound (pilo-TC30 and pilo-TC60), respectively.
# The control group received saline instead of pilocarpine and the test compound (saline-saline). […] Pilo-DZP received a second injection of 1 mg/kg DZP on the day of SE at about 10 h after the first one. Thereafter, Pilo-DZP and saline-saline rats received twice daily an equivalent volume of saline. […]
# To calculate the frequency of SRS in pilocarpine-exposed rats, the seizure severity and distinguished stage III (clonic seizures of facial muscles and anterior limbs) and stage IV-V seizures (rearing and falling) was considered. […] The frequency of more severe stage IV-V SRS was highest during the first week in most groups, except pilo-TC30 and TC60 with late seizure onset where the SRS frequency was constant over the whole 4 weeks in TC30 group and over the first two weeks in the pilo-TC60 group with late SRS onset in which no stage IV-V seizures where no seizures recorded after the second week.
# [3] = test system: lithium-pilocarpine status epilepticus in the rat; assay: EEG patterns during and after Li-pilo SE (Example 1); format: in vivo; conditions: for EEG by 6-7 h of SE: cortex and hippocampus
# Description: Male Wistar rats weighing 225-250 g, provided by Janvier Breeding Center (Le Genest-St-lste, France) were housed under controlled standard conditions (light/dark cycle, 7.00 a.m.-7.00 p.m. lights on), with food and water available ad libitum. All animal experimentation was performed in accordance with the rules of the European Communities Council Directive of Nov. 24, 1986 (86/609/EEC), and the French Department of Agriculture (License N^o 67-97). For electrode implantation, rats were anesthetized by an i.p. injection of 2.5 mg/kg diazepam (DZP, Valium, Roche, France) and […] ketamine chlorhydrate (Imalgene 1000, Rhone Merrieux, France). Four single-contact recording electrodes were placed on the skull, over the parietal cortex, two on each side.
# as §1
# The effects of the test compound on the EEG and on the latency to occurrence of SRS were investigated by daily video recording of the animals for 10 h per day and the recording of the electrographic activity twice a week for 8 h.
structure (smiles),measurement,setting,value
NC(=O)OC[C@@H](O)c1ccccc1Cl [TC],neurons surviving,"[1]; TC 120 mg/kg, 14 days after SE",85-94%
same,neuronal loss,"[1]; TC 120 mg/kg, hilus of dentate gyrus, 14 days after SE",53%
same,cell loss,"[1]; TC 120 mg/kg, hippocampus CA1 pyramidal cell layer, 14 days after SE",12%
same,neuronal drop out,"[1]; TC 120 mg/kg, thalamic nuclei (range), 14 days after SE",4-19%
same,cell loss (drop out),"[1]; TC30, 60 and 90 groups (range printed together with DZP group), hilus of dentate gyrus, 14 days after SE",61-66%
same,cell loss,"[1]; TC30, 60 or 90 rats (range over groups), hippocampus CA1 pyramidal cell layer, 14 days after SE",36-47%
same,frequency of stage III SRS,"[2]; TC 10 mg/kg, weeks 3 and 4",significantly increased over pilo-DZP values
same,occurrence of epilepsy,"[2]; TC 60 mg/kg, one rat",did not become epileptic in a delay of 9 months post-SE
same,EEG after injection at 24 and 48 h after SE (silent period),"[3]; TC 10 mg/kg, between 1 and 8 h after injection",no change
same,EEG by 6-7 h of SE,[3]; TC 10 mg/kg,spiking activity was still present in the cortex and the hippocampus
same,amplitude of the EEG by 6-7 h of SE,"[3]; TC 30 mg/kg, hippocampus",came back to baseline levels
same,amplitude of the EEG by 6-7 h of SE,"[3]; TC 60 mg/kg, hippocampus and cortex",came back to baseline levels
same,EEG after injection at 24 and 48 h after SE (silent period),"[3]; TC 30 and 60 mg/kg, as soon as 10 min after injection",frequency and amplitude of PEDs decreased
"CN1C(=O)CN=C(c2ccccc2)c2cc(Cl)ccc21 [DZP, diazepam]",number of neuronal cell bodies,"[1]; Amygdala Medial, dorsal anterior",40.0 ± 2.5
same,number of neuronal cell bodies,"[1]; Amygdala Medial, ventral posterior",21.8 ± 2.4
same,number of neuronal cell bodies,"[1]; Cerebral cortex Entorhinal, layer II, dorsal",23.5 ± 0.7
same,number of neuronal cell bodies,"[1]; Cerebral cortex Entorhinal, layer II, ventral",21.7 ± 1.3
same,number of neuronal cell bodies,"[1]; Cerebral cortex Entorhinal, layer III/IV, dorsal",22.3 ± 0.5
same,number of neuronal cell bodies,"[1]; Cerebral cortex Entorhinal, layer III/IV, ventral",7.7 ± 2.3
same,number of neuronal cell bodies,"[1]; Cerebral cortex Piriform, layer II, dorsal",12.6 ± 4.2
same,number of neuronal cell bodies,"[1]; Cerebral cortex Piriform, layer II, ventral",3.6 ± 0.7
same,number of neuronal cell bodies,"[1]; Cerebral cortex Piriform, layer III",1.2 ± 1.2
same,neurons surviving,"[1]; DZP, 14 days after SE",27-81%
same,neuronal loss (drop out) compared to control rats,"[1]; DZP, amygdala basolateral nucleus, 14 days after SE",73%
same,neuronal damage compared to control rats,"[1]; DZP, amygdala central nucleus, 14 days after SE",no neuronal damage
same,neuronal loss (drop out) compared to control rats,"[1]; DZP, amygdala medial dorsal anterior nucleus, 14 days after SE",53%
same,neuronal loss compared to control rats,"[1]; DZP, amygdala medial ventral posterior nucleus, 14 days after SE",38%
same,neuronal damage compared to control rats,"[1]; DZP, dentate gyrus granule cell layer, 14 days after SE",did not show overt damage
same,neuronal damage compared to control saline-treated rats,"[1]; DZP, dorsal entorhinal cortex layer II, 14 days after SE",18%
same,neuronal damage compared to control saline-treated rats,"[1]; DZP, dorsal entorhinal cortex layers III-IV, 14 days after SE",24%
same,neuronal loss compared to control rats,"[1]; DZP, hilus of dentate gyrus, 14 days after SE",65% and 66%
same,neuronal loss (drop out) compared to control rats,"[1]; DZP, hippocampus CA1 pyramidal cell layer, 14 days after SE",85%
same,neuronal loss compared to control rats,"[1]; DZP, hippocampus CA3 region, 14 days after SE",40%
same,neuronal loss compared to control saline-treated rats,"[1]; DZP, piriform cortex dorsal layer II, 14 days after SE",66%
same,neuronal loss compared to control saline-treated rats,"[1]; DZP, piriform cortex layer III, 14 days after SE",94%
same,neuronal loss compared to control saline-treated rats,"[1]; DZP, piriform cortex ventral layer II, 14 days after SE",89%
same,neuronal loss (drop out) compared to control rats,"[1]; DZP, thalamus central medial nucleus, 14 days after SE",34%
same,neuronal loss (drop out) compared to control rats,"[1]; DZP, thalamus dorsolateral medial dorsal nucleus, 14 days after SE",40%
same,neuronal loss (drop out) compared to control rats,"[1]; DZP, thalamus mediodorsal central nucleus, 14 days after SE",18%
same,neuronal loss (drop out) compared to control rats,"[1]; DZP, thalamus mediodorsal lateral nucleus, 14 days after SE",24%
same,neuronal loss compared to control rats,"[1]; DZP, thalamus mediodorsal nucleus, 14 days after SE",49%
same,neuronal loss compared to control rats,"[1]; DZP, thalamus ventral lateral division of the dorsolateral nucleus, 14 days after SE",90%
same,neuronal damage compared to control saline-treated rats,"[1]; DZP, ventral entorhinal cortex layer II, 14 days after SE",22% and 19%
same,neuronal damage compared to control saline-treated rats,"[1]; DZP, ventral entorhinal cortex layers III/IV, 14 days after SE",74% and 73%
same,number of neuronal cell bodies,[1]; Hippocampus CA1 area,10.9 ± 1.9
same,number of neuronal cell bodies,[1]; Hippocampus CA3 area,31.3 ± 2.9
same,number of neuronal cell bodies,[1]; Hippocampus Hilus,33.5 ± 3.0
same,number of neuronal cell bodies,[1]; Thalamus Central medial,74.2 ± 7.4
same,number of neuronal cell bodies,"[1]; Thalamus Dorsolateral, medial, dorsal",61 ± 6.3
same,number of neuronal cell bodies,"[1]; Thalamus Dorsolateral, ventral lateral",9.7 ± 2.5
same,number of neuronal cell bodies,[1]; Thalamus Mediodorsal central,26.3 ± 1.8
same,number of neuronal cell bodies,[1]; Thalamus Mediodorsal lateral,19.6 ± 0.8
same,number of neuronal cell bodies,[1]; Thalamus Mediodorsal medial,16.4 ± 1.9
same,EEG by 6-7 h of SE,[3]; DZP 2 mg/kg i.m.,spiking activity was still present in the cortex and the hippocampus
